# Results published in US20240158446A1, “CYCLIC COMPOUND HAVING SELECTIVE INHIBITORY ACTION ON KRAS OVER HRAS AND NRAS” (CHUGAI SEIYAKU KABUSHIKI KAISHA, priority 2021, published 2024).
# Where two headings read alike, the source gives them in different places.
# Legend:
# [1] = target: GDP-bound KRAS wild-type protein (Homo sapiens, UniProt P01116); assay: Binding to KRAS by surface plasmon resonance (SPR), Single Cycle Kinetics; conditions: GDP-bound KRAS wild-type protein, read-out: KRAS KD
# [2] = system: human lung cancer strain NCI-H441;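 further: cell proliferation inhibition after four days measured by CellTiter-Glo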
# [3] = target: GDP-bound NRAS wild-type protein (Homo sapiens, UniProt P01111); assay: Binding to NRAS by surface plasmon resonance (SPR), Single Cycle Kinetics; conditions: for NRAS/KRAS (ratio of KD value for NRAS to KD value for KRAS): GDP-bound NRAS wild-type protein vs GDP-bound KRAS wild-type protein; for NRAS/KRAS (ratio of KD value with respect to GDP-bound NRAS wild-type protein to KD value with respect to KRAS): SPR KD ratio NRAS/KRAS, class symbols
# Sequence of GDP-bound NRAS wild-type protein (P01111 whole entry): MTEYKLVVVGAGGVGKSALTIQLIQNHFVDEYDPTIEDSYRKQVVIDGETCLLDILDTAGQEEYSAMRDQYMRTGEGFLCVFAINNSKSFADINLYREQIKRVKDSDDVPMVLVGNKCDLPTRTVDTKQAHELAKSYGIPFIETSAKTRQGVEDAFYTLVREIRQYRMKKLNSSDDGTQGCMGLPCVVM
# [4] = target: GDP-bound HRAS wild-type protein (Homo sapiens, UniProt P01112); assay: Binding to HRAS by surface plasmon resonance (SPR), Single Cycle Kinetics; conditions: for HRAS/KRAS (ratio of KD value for HRAS to KD value for KRAS): GDP-bound HRAS wild-type protein vs GDP-bound KRAS wild-type protein; for HRAS/KRAS (ratio of KD value with respect to GDP-bound HRAS wild-type protein to KD value with respect to KRAS): SPR KD ratio HRAS/KRAS, class symbols
# Sequence of GDP-bound HRAS wild-type protein (P01112 whole entry): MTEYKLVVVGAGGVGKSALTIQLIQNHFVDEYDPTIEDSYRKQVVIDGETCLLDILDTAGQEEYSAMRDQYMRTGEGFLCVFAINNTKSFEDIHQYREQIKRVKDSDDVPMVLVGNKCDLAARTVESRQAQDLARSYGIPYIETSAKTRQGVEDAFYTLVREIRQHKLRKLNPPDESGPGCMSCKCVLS
# [5] = SPR, Single Cycle Kinetics, 1:1 binding model
# [6] = SPR Single Cycle Kinetics, 1:1 binding model
# Sequence of GDP-bound KRAS wild-type protein (P01116 whole entry): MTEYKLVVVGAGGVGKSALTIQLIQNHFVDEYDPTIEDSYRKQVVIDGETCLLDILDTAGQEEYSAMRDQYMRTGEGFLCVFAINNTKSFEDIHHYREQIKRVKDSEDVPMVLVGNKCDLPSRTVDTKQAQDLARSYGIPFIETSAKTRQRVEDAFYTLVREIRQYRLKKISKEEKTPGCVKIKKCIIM
Structure (SMILES),IC50 [2] [nM],"Kd [1, 6] [nM]",NRAS/KRAS (ratio of KD value with respect to GDP-bound NRAS wild-type protein to KD value with respect to KRAS) [3],HRAS/KRAS (ratio of KD value with respect to GDP-bound HRAS wild-type protein to KD value with respect to KRAS) [4],"Kd ([1]; SPR, Single Cycle Kinetics) [nM]",NRAS/KRAS (ratio of KD value for NRAS to KD value for KRAS) ([3]; SPR),HRAS/KRAS (ratio of KD value for HRAS to KD value for KRAS) ([4]; SPR),further results
CCO[C@@H]1C[C@H]2C(=O)NC3(CCC3)C(=O)N(C)[C@@H](C3CCCC3)C(=O)N(C)[C@H](C(=O)N(C)C)CC(=O)N(C)[C@@H](CC(C)(C)C)C(=O)N[C@@H]([C@@H](C)CC)C(=O)N(C)CC(=O)N(C)[C@H]3C/C=C\CCN(C3=O)[C@@H](CC3CCCCC3)C(=O)N(C)CC(=O)N[C@@H](CCc3cc(F)c(C(F)(F)F)c(F)c3)C(=O)N2C1 [PP1474],48.2,,,,,,,"Kd [1, 5]: 0.23 nM; NRAS/KRAS (ratio of KD value for NRAS to KD value for KRAS) ([3]; SPR, KD ratio class): A (a compound having 10 or more and less than 20 is denoted as A); HRAS/KRAS (ratio of KD value for HRAS to KD value for KRAS) ([4]; SPR, KD ratio class): A (a compound having 10 or more and less than 20 is denoted as A)"
CC[C@H](C)[C@@H]1NC(=O)[C@H](COC)N(C)C(=O)C[C@@H](C(=O)N(C)C)N(C)C(=O)[C@H](C2CCCCC2)N(C)C(=O)C2(CC(C)(C)C2)NC(=O)[C@@H]2C[C@@H](OC3CCC3)CN2C(=O)[C@H](CCc2cc(F)c(C(F)(F)F)c(F)c2)NC(=O)CN(C)C(=O)[C@H](Cc2ccc(C(F)(F)F)cc2)N2CC/C=C\C[C@@H](C2=O)N(C)C(=O)CN(C)C1=O [PP2655],17,0.1,AA (a compound having 20 or more is denoted as AA),A (a compound having 10 or more and less than 20 is denoted as A),,,,
CCO[C@@H]1C[C@H]2C(=O)NC3(CC(C)(C)C3)C(=O)N(C)[C@@H](C3CCCCC3)C(=O)N(C)[C@H](C(=O)N(C)C)CC(=O)N(C)[C@@H](COC)C(=O)N[C@@H]([C@@H](C)CC)C(=O)N(C)CC(=O)N(C)[C@H]3C/C=C\CCN(C3=O)[C@@H](Cc3ccc(C)cc3)C(=O)N(C)CC(=O)N[C@@H](CCc3cc(F)c(C(F)(F)F)c(F)c3)C(=O)N2C1 [PP2659],20.6,0.19,A (a compound having 10 or more and less than 20 is denoted as A),A (a compound having 10 or more and less than 20 is denoted as A),,,,
CCCO[C@@H]1C[C@H]2C(=O)NC3(CC(C)(C)C3)C(=O)N(C)[C@@H](C3CCCC3)C(=O)N(C)[C@H](C(=O)N(C)C)CC(=O)N(C)[C@H]3CCCCc4ccc(cc4)C[C@@H](C(=O)N(C)CC(=O)N[C@@H](CCc4ccc(Cl)c(Cl)c4)C(=O)N2C1)N1CC/C=C\C[C@@H](C1=O)N(C)C(=O)CN(C)C(=O)[C@H]([C@@H](C)CC)NC3=O [PP3092],,,,,0.09,A (a compound having 10 or more and less than 20 is denoted as A),A (a compound having 10 or more and less than 20 is denoted as A),"IC50 ([2]; read-out: NCI-H441 cell proliferation inhibitory activity, 50% proliferation inhibitory concentration (IC50 value), NCI-H441, four days, CellTiter-Glo): 7.4 nM; ratio of the KD value with respect to GDP-bound NRAS wild-type protein to the KD value with respect to KRAS ([3]; SPR, KD(NRAS)/KD(KRAS)): A (a compound having 10 or more and less than 20 is denoted as A); ratio of the KD value with respect to GDP-bound HRAS wild-type protein to the KD value with respect to KRAS ([4]; SPR, KD(HRAS)/KD(KRAS)): A (a compound having 10 or more and less than 20 is denoted as A)"
CCC[C@H]1C(=O)N[C@@H]([C@@H](C)CC)C(=O)N(C2CC2)CC(=O)N(C)[C@H]2C/C=C\CCN(C2=O)[C@@H](CC2CCC(F)(F)CC2)C(=O)N(C)CC(=O)N[C@@H](CCc2ccc(Cl)c(Cl)c2)C(=O)N2C[C@H](OC(C)C)C[C@H]2C(=O)NC2(CC(C)(C)C2)C(=O)N(C)[C@@H](C2CCCC2)C(=O)N(C)[C@H](C(=O)N(C)C)CC(=O)N1C [PP2521],129,,,,2.8,A (a compound having 10 or more and less than 20 is denoted as A),A (a compound having 10 or more and less than 20 is denoted as A),
CCC(CC)[C@H]1C(=O)N(C)[C@H](C(=O)N(C)C)CC(=O)N(C)[C@@H](COC)C(=O)N[C@@H]([C@@H](C)CC)C(=O)N(C2CC2)CC(=O)N(C)[C@H]2C/C=C\CCN(C2=O)[C@@H](CC2CCC(F)(F)CC2)C(=O)N(C)CC(=O)N[C@@H](CCc2cc(F)c(C(F)(F)F)c(F)c2)C(=O)N2C[C@H](OC(C)C)C[C@H]2C(=O)NC2(CC(C)(C)C2)C(=O)N1C [PP2523],91.9,1.7,A (a compound having 10 or more and less than 20 is denoted as A),A (a compound having 10 or more and less than 20 is denoted as A),,,,
CCO[C@@H]1C[C@H]2C(=O)NC3(CCC3)C(=O)N(C)[C@@H](C3CCCC3)C(=O)N(C)[C@H](C(=O)N3CCOCC3)CC(=O)N(C)[C@@H](CC(C)C)C(=O)N[C@@H]([C@@H](C)CC)C(=O)N(C)CC(=O)N(C)[C@H]3CCCCCN(C3=O)[C@@H](Cc3ccc4ccsc4c3)C(=O)N(C)CC(=O)N[C@@H](CCc3cc(F)c(C(F)(F)F)c(F)c3)C(=O)N2C1 [PP0921],139,,,,2.6,B (a compound having 3 or more and less than 10 is denoted as B),B (a compound having 3 or more and less than 10 is denoted as B),
CCO[C@@H]1C[C@H]2C(=O)NC3(CCCC3)C(=O)N(C)[C@@H](C3CCCC3)C(=O)N(C)[C@H](C(=O)N3CCOCC3)CC(=O)N(C)[C@@H](COC)C(=O)N[C@@H]([C@@H](C)CC)C(=O)NCC(=O)N(C)[C@H]3CCCCCN(C3=O)[C@@H](Cc3ccc(C(F)(F)F)cc3)C(=O)N(C)CC(=O)N[C@@H](CCc3cc(F)c(C(F)(F)F)c(F)c3)C(=O)N2C1 [PP0862],81.1,,,,1.1,B (a compound having 3 or more and less than 10 is denoted as B),B (a compound having 3 or more and less than 10 is denoted as B),
CCOC[C@H]1C(=O)N[C@@H]([C@@H](C)CC)C(=O)N(C)CC(=O)N(C)[C@H]2C/C=C\CCN(C2=O)[C@@H](Cc2ccc(C(F)(F)F)cc2)C(=O)N(C)CC(=O)N[C@@H](CCc2cc(F)c(C(F)(F)F)c(F)c2)C(=O)N2C[C@H](OCC)C[C@H]2C(=O)NC2(CC(C)(C)C2)C(=O)N(C)[C@@H](CC(C)(C)C)C(=O)N(C)[C@H](C(=O)N(C)C)CC(=O)N1C [PP2732],5.3,0.067,A (a compound having 10 or more and less than 20 is denoted as A),A (a compound having 10 or more and less than 20 is denoted as A),,,,
CCO[C@@H]1C[C@H]2C(=O)NC3(CCC3)C(=O)N(C)[C@@H](C(CC)CC)C(=O)N(C)[C@H](C(=O)N(C)C)CC(=O)N(C)[C@@H](C)C(=O)N[C@@H]([C@@H](C)CC)C(=O)N(C)CC(=O)N(C)[C@H]3C/C=C\CCN(C3=O)[C@@H](Cc3ccc(C(F)(F)F)cc3)C(=O)N(C)CC(=O)N[C@@H](CCc3ccc4sccc4c3)C(=O)N2C1 [PP1222],301,,,,,,,"Kd [1, 5]: 1.2 nM; NRAS/KRAS (ratio of KD value for NRAS to KD value for KRAS) ([3]; SPR, KD ratio class): A (a compound having 10 or more and less than 20 is denoted as A); HRAS/KRAS (ratio of KD value for HRAS to KD value for KRAS) ([4]; SPR, KD ratio class): A (a compound having 10 or more and less than 20 is denoted as A)"
CCC[C@H]1C(=O)N[C@@H](CC(C)C)C(=O)N(C2CC2)CC(=O)N(C)[C@H]2C/C=C\CCN(C2=O)[C@@H](Cc2ccc(C)cc2)C(=O)N(C)CC(=O)N[C@@H](CCc2cc(F)c(C(F)(F)F)c(F)c2)C(=O)N2C[C@H](OCC)C[C@H]2C(=O)NC2(CCC2)C(=O)N(C)[C@@H](C2CCCC2)C(=O)N(C)[C@H](C(=O)N(C)C)CC(=O)N1C [PP2532],144,4.1,A (a compound having 10 or more and less than 20 is denoted as A),B (a compound having 3 or more and less than 10 is denoted as B),,,,
CCCC[C@H]1C(=O)N[C@@H]([C@@H](C)CC)C(=O)N(C)CC(=O)N(C)[C@H]2C/C=C\CCN(C2=O)[C@@H](Cc2ccc(C(F)(F)F)cc2)C(=O)N(C)CC(=O)N[C@@H](CCc2cc(F)c(C(F)(F)F)c(F)c2)C(=O)N2C[C@H](OCC)C[C@H]2C(=O)NC2(CC(F)(F)C2)C(=O)N(C)[C@@H](C2CCCC2)C(=O)N(C)[C@H](C(=O)N(C)C)CC(=O)N1C [PP1740],,,,,0.053,,,"IC50 ([2]; read-out: NCI-H441 IC50, NCI-H441 cell proliferation, 4 days, CellTiter-Glo): 3.6 nM; NRAS/KRAS (KD ratio) ([3]; ratio of KD for GDP-bound NRAS wild-type protein to KD for KRAS, SPR): A (a compound having 10 or more and less than 20 is denoted as A); HRAS/KRAS (KD ratio) ([4]; ratio of KD for GDP-bound HRAS wild-type protein to KD for KRAS, SPR): A (a compound having 10 or more and less than 20 is denoted as A)"
